Reference: patent US6835382B2, “Ii peptide therapeutics to enhance antigen presentation” (University of Massachusetts, priority 1996, dated 2004)
No end group written: not given here.

What was measured:
[1] = test system: HLA-DR1 molecules; test: exchange of biotinylated hMBP(90-102) into antigenic peptide-loaded HLA-DR1 (assay III); assay type: binding, human; settings: Table 38; HLA-DR1 preloaded with unlabeled hMBP(90-102) 50 μM; exchange with biotin-labeled hMBP(90-102) 50 μM, 37° C., 1 h; fraction of positive control o.d.; no enhancement = 0.08
[2] = test system: HLA-DR1 molecules; test: release of biotin-labeled hMBP(90-102) from HLA-DR1 without unlabeled antigenic peptide (assay I); assay type: binding, human; settings: Table 37, no unlabeled hMBP(90-102)
[3] = target: T1, HLA-DR1 molecules (Homo sapiens, UniProt P01903+P01911, A100R/D57E/F55L/F60I/F76Y/I96L/L162R/M171V/P40L/Q125E/R42F/V115G/Y59C); test: binding of biotin-labeled hMBP(90-102) to "empty" HLA-DR1 (assay IV); settings: Table 39; AE101 series compound 64 μM; biotin-labeled hMBP(90-102) 50 μM, 37° C., 1 h; no enhancement = 1
T1 construct: The HLA-DR alpha gene was truncated after Asn^192 to remove transmembranal and cytoplasmic regions from the protein product; A gene coding for the HLA-DR1 beta chain was truncated after position Lys^198, again to delete the transmembranal region; made in house; host or cells: insect cell line printed as HS / H5 (Invitrogen), co-infected with two baculoviruses; concentrated culture supernatant captured on 12CA5 antibody

cyclic LRMKLPK (bridge (positions not given here); also: cyclic, ring type not given here) [AE381, “head-to-tail” cyclization from the amino-terminus to the carboxyl-terminus of AE114]
Relative Binding [1]: −0.12 | Relative Release, Without unlabeled hMBP(90-102), 1 μM ([2]; AE101 series compound 1 μM): 0.64 | Relative Release, Without unlabeled hMBP(90-102), 64 μM ([2]; AE101 series compound 64 μM): 0.5 | Relative Enhancement [3]: 1.84
